Source: the supplement of paper PMC10307832

Columns and labels:
Experiment in all cases: relative viability (nuclei count vs DMSO), 5 days (fraction); higher = more cells survive
Wnt-C59 + Palbociclib = compound: CC1=NC=CC(=C1)C2=CC=C(C=C2)CC(=O)NC3=CC=C(C=C3)C4=CN=CC=C4 [Wnt-C59] + CC(=O)c1c(C)c2cnc(Nc3ccc(N4CCNCC4)cn3)nc2n(C2CCCC2)c1=O [Palbociclib] (partner 0.5 µM)
Method in brief: (§1)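 One day after seeding in 1536-well plates, lung cancer cell lines were dosed by pin tool. Dosing was either single-drug or a fixed anchor-drug dose plus five library-drug doses (not always all listed) in √10 steps. After 5 days, nuclei were stained in one fix-and-stain step and counted on 4× images, and relative viability is the nuclei count of treated wells over that of vehicle wells, given as the median of duplicate plates.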

Wnt-C59 + Tozasertib = compound: CC1=NC=CC(=C1)C2=CC=C(C=C2)CC(=O)NC3=CC=C(C=C3)C4=CN=CC=C4 [Wnt-C59] + Cc1cc(Nc2cc(N3CCN(C)CC3)nc(Sc3ccc(NC(=O)C4CC4)cc3)n2)n[nH]1 [Tozasertib] (partner 0.1 µM)
Method in brief: as §1

Lapatinib + Vorinostat = compound: CS(=O)(=O)CCNCc1ccc(-c2ccc3ncnc(Nc4ccc(OCc5cccc(F)c5)c(Cl)c4)c3c2)o1 [Lapatinib] + O=C(CCCCCCC(=O)Nc1ccccc1)NO [Vorinostat] (partner 1 µM)
Method in brief: as §1

Lapatinib + Pemetrexed = compound: CS(=O)(=O)CCNCc1ccc(-c2ccc3ncnc(Nc4ccc(OCc5cccc(F)c5)c(Cl)c4)c3c2)o1 [Lapatinib] + Nc1nc2[nH]cc(CCc3ccc(C(=O)N[C@@H](CCC(=O)O)C(=O)O)cc3)c2c(=O)[nH]1 [Pemetrexed] (partner 0.2 µM)
Method in brief: as §1

| Cell Line | relative viability (Wnt-C59 + Palbociclib; first compound 0.001 µM) | relative viability (Wnt-C59 + Palbociclib; first compound 0.01 µM) | relative viability (Wnt-C59 + Palbociclib; first compound 0.03162 µM) | relative viability (Wnt-C59 + Palbociclib; first compound 0.1 µM) | relative viability (Wnt-C59 + Tozasertib; first compound 0.001 µM) | relative viability (Wnt-C59 + Tozasertib; first compound 0.01 µM) | relative viability (Wnt-C59 + Tozasertib; first compound 0.03162 µM) | relative viability (Wnt-C59 + Tozasertib; first compound 0.1 µM) | relative viability (Lapatinib + Vorinostat; first compound 0.02 µM) | relative viability (Lapatinib + Vorinostat; first compound 0.06325 µM) | relative viability (Lapatinib + Vorinostat; first compound 0.2 µM) | relative viability (Lapatinib + Vorinostat; first compound 0.6325 µM) | relative viability (Lapatinib + Vorinostat; first compound 2 µM) | relative viability (Lapatinib + Pemetrexed; first compound 0.02 µM) | relative viability (Lapatinib + Pemetrexed; first compound 0.06325 µM) | relative viability (Lapatinib + Pemetrexed; first compound 0.2 µM) | relative viability (Lapatinib + Pemetrexed; first compound 0.6325 µM) | relative viability (Lapatinib + Pemetrexed; first compound 2 µM) |
| --- | --- | --- | --- | --- | --- | --- | --- | --- | --- | --- | --- | --- | --- | --- | --- | --- | --- | --- |
| RERF-LC-KJ | 1.22 | 1.07 | 1.2 | 1.08 | 0.48 | 0.561 | 0.515 | 0.481 | 0.543 | 0.632 | 0.673 | 0.647 | 0.601 | 0.39 | 0.472 | 0.466 | 0.444 | 0.459 |
| EMC-BAC-2 | 0.496 | 0.437 | 0.438 | 0.413 | 0.341 | 0.274 | 0.322 | 0.306 |  | 0.336 |  | 0.531 | 0.522 |  | 0.452 | 0.475 | 0.475 | 0.45 |
| NCI-H522 | 0.912 | 1.04 | 1.15 | 0.892 | 0.63 | 0.566 | 0.578 | 0.651 |  | 0.822 | 1 | 0.839 | 0.902 |  | 0.794 | 0.875 | 0.994 | 0.781 |
| NCI-H1651 | 0.526 | 0.499 | 0.452 | 0.479 | 0.918 | 0.537 | 0.761 | 0.744 | 0.615 | 0.517 | 0.477 | 0.543 | 0.521 | 0.48 | 0.553 | 0.553 | 0.6 | 0.657 |
| IA-LM |  |  |  |  |  |  |  |  |  | 0.795 |  | 0.916 | 0.885 |  |  |  |  |  |
| NCI-H520 | 0.244 | 0.208 | 0.239 | 0.222 | 0.434 | 0.54 | 0.496 | 0.43 | 0.7 | 0.684 | 0.707 | 0.671 | 0.76 | 0.741 | 0.636 | 0.604 | 0.712 | 0.489 |
| NCI-H1793 | 0.296 | 0.259 | 0.355 | 0.321 | 0.309 |  | 0.302 | 0.345 |  | 0.495 | 0.646 | 0.646 | 0.42 |  | 0.602 | 0.889 | 0.658 | 0.535 |
| NCI-H647 | 0.346 | 0.326 | 0.388 | 0.316 | 0.448 | 0.27 | 0.167 | 0.179 | 0.627 | 0.403 | 0.627 | 0.498 | 0.584 | 0.176 | 0.149 | 0.162 | 0.168 | 0.158 |
| HCC-44 | 0.982 | 0.977 | 1.04 | 1 | 1.12 | 0.909 | 0.976 | 0.864 | 1.07 | 1.11 | 1.16 | 1.16 | 0.916 | 0.681 | 0.653 | 0.651 | 0.614 | 0.685 |
| HCC-827 | 0.499 | 0.524 | 0.492 | 0.511 | 0.45 | 0.427 | 0.374 | 0.443 | 0.76 | 0.868 | 0.706 | 0.802 | 0.869 | 0.26 | 0.263 | 0.285 | 0.239 | 0.202 |
